Results from patent US11591324B2, “Retinoic acid receptor antagonists as chaperone-mediated autophagy modulators and uses thereof” (ALBERT EINSTEIN COLLEGE OF MEDICINE, priority 2013, dated 2023).
Starred links: 1 amine or outer side, 2 acyl side, 3 side chain; linkers in the order of their positions; H or OH if unused. Positions of bridges follow the written chain, without caps; N, C: chain ends. Non-standard residues stand in square brackets, D forms with d. Residues, ends and D or L forms follow the SMILES beside them. Chains are numbered I, II in the order given. Actinocin(9to1) = Cc1c2oc3c(C)ccc(C(=O)[*:1])c3nc-2c(C(=O)[*:2])c(N)c1=O; NMeV = CN[C@H](C(=O)O)C(C)C; Sar = CNCC(=O)O

Key:
[1] = tested on: macroautophagy (LC3-II); experiment: Macroautophagy: LC3-II levels and flux (immunoblot, mCherry-GFP-LC3); format: cell-based; conditions: mouse fibroblasts; retinoid derivatives 20 μM
Description: (§1) Autophagic measurements. […] Lysosomes from cultured cells were isolated by similar procedures but using instead discontinuous metrizamide/percoll gradients after rupture of the plasma membrane through nitrogen cavitation^33.
To directly analyze macroautophagy, a widely accepted assay was used to measure activity of this pathway based on the analysis of the intracellular levels and degradation of the lipid-conjugated form of the light chain protein type 3 (LC3-II), a constitutive component of autophagosomes^29. Steady-state levels of LC3-II provide information on the amount of autophagosomes present in a cell at a given time, whereas the amount of LC3-II that accumulates upon blockage of lysosomal proteolysis allows measuring the efficiency of fusion and degradation of autophagic vacuoles by lysosomes (autophagic flux). […] Immunofluorescence for LC3 in these cells confirmed the presence of higher content of LC3-positive vesicles in the cells defective for RARα. These vesicles were confirmed to be autophagosomes using a double tagged form of LC3 (mCherry-GPF-LC3) that due to quenching of GFP fluorescence at low pH highlights autophagosomes in yellow and lysosomes in red. […] An increase in autophagosome content can result from increased formation of these organelles (autophagosome induction) or from reduced clearance of autophagosomes by lysosomes. To differentiate between both possibilities, the autophagic flux was compared in control and RARα (−) cells.

[2] = tested on: chaperone-mediated autophagy (CMA); experiment: High content microscopy CMA assay (KFERQ-PS-dendra reporter); format: cell-based, mouse; conditions: for basal versus stress-induced CMA activation: presence or absence of serum
Description: CMA activity in mouse fibroblasts in culture was measured using a new version of a previously developed photoswitchable (PS) CMA fluorescent reporter^30 generated by addition of a CMA targeting motif to the PS-dendra protein (KFERQ-PS-dendra). Briefly, cells transduced with lentivirus carrying the reporter were photoactivated 24 h after transduction by exposure to a 3.5 mA (current constant), and 90V light emitting diode (LED: Norlux, 405 nm) for 9 min. Cells were plated in 96 well plates, subjected to the desired treatments and at the end of the experiment fixed in 4% paraformaldehyde. Images were captured with a high content microscope (Opperetta system, Perkin Elmer) and quantification was performed with the instrument software in a minimum of 200 cells or 9 fields.

[3] = tested on: mouse fibroblasts transfected with α-synuclein; experiment: α-synuclein plus PQ proteotoxicity (viability, immunoblot); format: cell-based; conditions: pre-treatment 20 μM before 1 mM PQ
Description: Maintained chronic oxidation is a common feature of aging and an aggravating factor in multiple degenerative disorders. To model the detrimental effect of oxidative stress on proteotoxicity and analyze the possible beneficial effect of enhancing CMA activity in these conditions, cells were transfected with α-synuclein, the protein that accumulates in the form of intracellular aggregates in Parkinson's disease (PD) and previously identified as a bonafide CMA substrate^9,10. Although mutations in this protein have been associated to the familial forms of the disease, in more than 98% of PD patients the protein that accumulates in the protein inclusions is wild type. Consequently, different intracellular factors and aggressors, including oxidative stress, have been proposed to contribute to the idiopathic forms of this pathology. […] Although the presence of α-synuclein alone was not toxic for these cells, the toxicity of a fixed concentration of PQ was clearly dependent on the concentration of this protein present in the cell. The concentration of PQ added to these cells was adjusted so that in cells expressing low levels of α-synuclein, its toxic effect was limited to no more than 20% reduction in cellular viability. […]

[4] = molecular target: T1, hRARα (Homo sapiens, UniProt P10276); experiment: RARα activity, RAR-responsive luciferase reporter; format: cell-based; conditions: for RARα antagonist activity (inhibition of ATRA-dependent luciferase): in combination with 100 nM ATRA
T1 construct: expressed in transfected cells; host or cells: mouse fibroblasts (NIH3T3)
Description: Measurement of RARα and RXR activity. A RAR-responsive luciferase construct was utilized to monitor the activity of RARα in cultured cells. Cells were co-transfected with pCMX-Gal-L-hRARα and a construct encoding the firefly luciferase reporter gene under the control of a minimal promoter and tandem repeats of the retinoic-acid response element (tk-px3-luc). Co-transfection with a renilla luciferase reporter plasmid was performed to control for efficiency of transfection. RXR activity was measured by similar procedures using co-transfection with pCMX-mRXR and tk-apoA1-luc. Compounds were added 24 h after transfection and 48 h later cells were lysed and assayed for luciferase activity using the Dual-Luciferase Reporter Assay System (Progmega). Luciferase values were normalized to the renilla luciferase reporter.
To determine the effect of these molecules on RAR signaling, cells were co-transfected cells with a plasmid coding for RAR fused to the Gal4 DNA-binding domain and a Gal4-dependent luciferase reporter.

[5] = molecular target: T2, RARα (Mus musculus, UniProt P11416); experiment: RARα translocation to the nucleus; format: cell-based
T2 construct: endogenous in cells; host or cells: mouse fibroblasts (NIH3T3), inferred
T2 sequence (P11416 1-462): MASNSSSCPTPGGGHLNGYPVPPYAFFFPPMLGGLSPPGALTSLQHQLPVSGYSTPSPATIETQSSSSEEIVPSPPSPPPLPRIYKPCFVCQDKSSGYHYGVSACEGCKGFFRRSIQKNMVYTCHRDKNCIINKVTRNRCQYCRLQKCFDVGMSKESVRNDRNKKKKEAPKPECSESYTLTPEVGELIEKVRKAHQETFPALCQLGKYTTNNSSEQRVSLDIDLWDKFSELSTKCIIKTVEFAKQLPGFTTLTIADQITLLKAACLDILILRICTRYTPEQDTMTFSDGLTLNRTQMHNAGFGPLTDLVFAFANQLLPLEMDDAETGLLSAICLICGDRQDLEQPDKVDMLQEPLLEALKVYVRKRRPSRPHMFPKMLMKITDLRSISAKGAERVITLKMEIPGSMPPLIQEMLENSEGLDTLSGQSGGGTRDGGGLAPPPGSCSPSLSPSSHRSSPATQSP

[6] = tested on: chaperone-mediated autophagy (CMA); experiment: CMA reporter assay (photoactivable KFERQ-PA-mCherry1 reporter); format: cell-based, mouse; conditions: for CMA activity (fluorescent puncta per cell, CMA reporter): mouse fibroblasts, 20 μM
Description: as §1
CMA reporter assay. The photoactivable CMA reporter was constructed by inserting a sequence of 21 amino acids of Ribonuclease A bearing the CMA-targeting motif in the N-terminus multicloning site of the photoactivable protein mCherry1 (PA-mCherry1)^30. […] All images were acquired with a high-resolution CCD camera after optical sectioning through the apotome. Images were prepared using Adobe Photoshop 6.0 software (Adobe Systems). Quantification was performed in individual frames after deconvolution and thresholding using ImageJ software (NIH) in a minimum of 50 cells.
Because the observed downregulation of macroautophagy upon RARα knock-down cannot explain the increase in lysosomal degradation observed in these cells (FIG. 1c), the effect of this intervention on CMA was measured. Activation of this selective autophagic pathway can be determined using a photoactivable (PA) reporter fused to the CMA-targeting motif (KFERQ-PA-mcherry1)^30. Activation of CMA favors mobilization of this artificial CMA substrate from the cytosol to lysosomes, which can be tracked as a change in the reporter fluorescence from a diffuse to a punctate pattern^30.

[7] = tested on: mouse fibroblasts (NIH3T3); experiment: Intracellular protein degradation (metabolic labeling, pulse chase)
[8] = tested on: LAMP-2A; experiment: LAMP-2A mRNA levels (quantitative real time PCR)

T1 sequence (P10276 with tags, fused parts or gaps limits assumed): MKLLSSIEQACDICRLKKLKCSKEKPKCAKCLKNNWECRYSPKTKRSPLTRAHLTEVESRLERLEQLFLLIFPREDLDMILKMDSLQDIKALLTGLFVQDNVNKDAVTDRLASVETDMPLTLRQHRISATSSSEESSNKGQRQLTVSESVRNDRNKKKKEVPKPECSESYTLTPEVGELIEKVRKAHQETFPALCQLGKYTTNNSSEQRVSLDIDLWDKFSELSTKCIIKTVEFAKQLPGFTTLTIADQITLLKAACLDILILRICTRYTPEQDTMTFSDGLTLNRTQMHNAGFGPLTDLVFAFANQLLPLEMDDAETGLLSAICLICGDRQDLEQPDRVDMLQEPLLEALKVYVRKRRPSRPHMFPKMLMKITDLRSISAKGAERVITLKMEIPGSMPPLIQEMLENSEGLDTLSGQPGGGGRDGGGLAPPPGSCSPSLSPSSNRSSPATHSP

For Cc1ccc(C2=Nc3ccc(Cl)cc3OC2)cc1 [AR7], the “macroautophagy: LC3 steady state levels and lysosomal flux” value [1] was “absence of effect on other autophagic pathways”, the “basal versus stress-induced CMA activation” value [2] was “only activated basal CMA” and the “cellular viability of α-synuclein-transfected cells treated with PQ” value [3] was “significant increases in cellular viability”. For the same molecule, the “RARα antagonist activity (inhibition of ATRA-dependent luciferase)” value [4] was “among the most potent antagonist compounds in the library”, the “RARα relocation to the nucleus” value [5] was “sufficient to stimulate some relocation of cytosolic RARα to the nucleus” and the “CMA activity (fluorescent puncta per cell, CMA reporter)” value ([6]; presence of serum) was “marked activation of CMA activity”.

In the case of CC1=C(/C=C/C(C)=C/C=C/C(C)=C/C(=O)O)C(C)(C)CCC1 [ATRA, all-trans-retinoic acid], the “protein degradation in response to prolonged serum removal” value ([7]; 40 μM ATRA, absence of serum) was “significantly reduced the increase in protein degradation”, the “lysosomal degradation (sensitive to inhibitors of lysosomal proteolysis)” value ([7]; 40 μM ATRA, basal and inducible) was “both basal and inducible lysosomal degradation were significantly compromised” and the “total rates of protein degradation, basal” value ([7]; 40 μM ATRA, presence of serum) was “did not affect total rates of protein degradation under basal conditions”. For the same molecule, the “inhibitory effect on autophagic degradation of cytosolic proteins in RARα (−) cells” value ([7]; ATRA, RARα knock-down) was “still detectable when RARα (−) cells were supplemented with ATRA”, the “macroautophagy: LC3 steady state levels and lysosomal flux” value [1] was “no significant changes in steady state levels of LC3 or in its lysosomal flux” and the “RARα agonist activity (luciferase)” value ([4]; compound alone) was “dose-dependent activation”. For the same molecule, the “LAMP-2A mRNA levels, serum deprived” value ([8]; ATRA added to cells deprived of serum) was “significant decrease in LAMP-2A mRNA”, the “LAMP-2A mRNA levels, basal” value ([8]; ATRA, basal conditions) was “No changes in LAMP-2A mRNA levels” and the “basal CMA” value ([6]; ATRA treatment, presence of serum) was “did not have a noticeable effect on basal CMA”. The “activation of CMA in response to serum removal” value ([6]; ATRA treatment, serum removal) was “significantly reduced the activation of this pathway in response to serum removal” and the “effect on CMA activity in RARα (−) cells” value ([6]; RARα knock-down mouse fibroblasts) was “no longer inhibited CMA activity in RARα (−) cells”.

For Cc1c2oc3c(C)ccc(C(=O)N[C@@H]4C(=O)N[C@H](C(C)C)C(=O)N5CCC[C@H]5C(=O)N(C)CC(=O)N(C)[C@@H](C(C)C)C(=O)O[C@@H]4C)c3nc-2c(C(=O)N[C@@H]2C(=O)N[C@H](C(C)C)C(=O)N3CCC[C@H]3C(=O)N(C)CC(=O)N(C)[C@@H](C(C)C)C(=O)O[C@@H]2C)c(N)c1=O [Actinomycin D] (I: T[dV]P[Sar][NMeV] / II: T[dV]P[Sar][NMeV]; ester I:1-I:C, II:1-II:C; linker I:N-II:N via Actinocin(9to1)), the “stimulatory effect of AR7 on CMA under transcriptional repression” value ([6]; AR7 plus Actinomycin D) was “partially reduced the stimulatory effect of AR7 on CMA”.

For CC1(C)CC=C(c2cnc3ccccc3c2)c2cc(C(=O)Nc3ccc(C(=O)O)cc3)ccc21 [BMS614], the “macroautophagy: LC3 steady state levels and lysosomal flux” value [1] was “inhibited macroautophagy” and the “CMA activity (fluorescent puncta per cell, CMA reporter)” value ([6]; presence of serum) was “also enhanced CMA activity”.

With CC1=CC(=Cc2ccc(C(=O)NC(=N)N)cc2)CC(C)(C)C1 [GR1, N-[4-(3,5,5-trimethyl-cyclohex-2-enylidenemethyl)-benzoyl]-guanidine] the “macroautophagy: LC3 steady state levels and lysosomal flux” value [1] was “absence of effect on other autophagic pathways” and the “CMA activity (fluorescent puncta per cell, CMA reporter)” value ([6]; presence of serum) was “marked activation of CMA activity”.

For CC1=CC(=Cc2ccc(C(=O)NC(=N)N)cc2)CCC1 [GR2, N-[4-(3-methyl-cyclohex-2-enylidenemethyl)-benzoyl]-guanidine], the “macroautophagy: LC3 steady state levels and lysosomal flux” value [1] was “absence of effect on other autophagic pathways”, the “RARα antagonist activity (inhibition of ATRA-dependent luciferase)” value [4] was “among the most potent antagonist compounds in the library” and the “CMA activity (fluorescent puncta per cell, CMA reporter)” value ([6]; presence of serum) was “marked activation of CMA activity”.

With Clc1ccc2c(c1)OCC(c1ccc(-c3ccccc3)cc1)=N2 [QX39] the “CMA activation potency relative to AR7” value ([2]; cultured cells, photoactivatable CMA reporter) was 2-3 fold and the “basal versus stress-induced CMA activation” value [2] was “activated both basal and stress-induced CMA”.
